Measurements published in patent publication EP0037224A1, “Rare earth metal carboxylates, their use as antimicrobial agents, and medicinal, cosmetic and cleansing compositions containing them” (THE PROCTER & GAMBLE COMPANY, priority 1980, dated 1981).

How the values were obtained:
[1] = test system: E. coli; test: Minimum Bactericidal Concentration test; assay type: cell-based; conditions: 10-minute contact with the test agent at 37°C; at least a 3 log unit reduction in viable cell count
[2] = test system: S. aureus; test: Minimum Bactericidal Concentration test; assay type: cell-based; conditions: 10-minute contact with the test agent at 37°C; at least a 3 log unit reduction in viable cell count
[3] = test system: Staphylococcus; conditions: cited from earlier work
[4] = test system: molds; conditions: cited from earlier work

| SMILES | Minimum Bactericidal Concentration E. coli [1] | Minimum Bactericidal Concentration S. aureus [2] | concentration that inhibits Staphylococcus [3] | concentration that inhibits molds [4] |
| --- | --- | --- | --- | --- |
| O.O.O.O.O.O.[Cl-].[Cl-].[Cl-].[La+3] [LaCl3.6H2O] | >3500 ppm | >3500 ppm |  |  |
| O.O.O.O.O.O.O=[N+]([O-])[O-].O=[N+]([O-])[O-].O=[N+]([O-])[O-].[La+3] [La(NO3)3.6H2O] | >4300 ppm | >4300 ppm |  |  |
| O.O.O.O.O.O.O.O.O=S(=O)([O-])[O-].O=S(=O)([O-])[O-].O=S(=O)([O-])[O-].[La+3].[La+3] [La2(SO4)3.8H2O] | >7100 ppm | >7100 ppm |  |  |
| O=[N+]([O-])[O-].O=[N+]([O-])[O-].O=[N+]([O-])[O-].[Ce+3] [cerium nitrate] |  |  | 1000 ppm | 1000 ppm |
